Measurements reported in a flash point compilation (Sun et al. 2020).
Structures can show the parent of a compound that is named as a salt.

Row | SMILES | flash point [°C]
1 | CN(C)C1CCCCC1 [N,N-dimethylcyclohexylamine] | 41
2 | C=C1CCCCC1 [methylenecyclohexane] | -2

remark: another data set of the same source

Row | SMILES | flash point [°C]
3 | O=Cc1ccccc1 [Benzaldehyde] | 64.00
4 | Cc1ccccc1O [o-Cresol] | 81.00
5 | COc1ccc(O)cc1 [Hydroquinone monomethyl ether] | 131.00
6 | COC(C)=O [Methyl acetate] | -9.00
7 | FC(F)=C(F)Cl [Chlorotrifluoroethylene] | -27.00
8 | CCCCOC(C)=O [n-Butyl acetate] | 27.00
9 | O=Cc1ccccc1O [Salicylaldehyde] | 78.00
10 | Nc1ccc(N)cc1 [p-Phenylenediamine] | 156.00
11 | CC(=O)CC(C)=O [2,4-Pentanedione] | 41.00
12 | N#CCCCCC#N [Adiponitrile] | 93.00
13 | CC=O [Acetaldehyde] | -38.00
14 | CC(C)=CC(C)(C)C [2,4,4-Trimethyl-2-pentene] | 2.00
15 | CCCCCCCCCc1ccccc1O [Nonyl phenol] | 141.00
16 | CC(=O)C=C(C)C [Mesityl oxide] | 31.00
17 | c1ccccc1 [Benzene] | -11.00
18 | CC(C)(C)OOC(=O)c1ccccc1 [tert-Butyl perbenzoate] | 88.00
19 | CCCC(=O)O [n-Butyric acid] | 66.00
20 | CCC(C)OC(C)=O (centres undefined) [sec-Butyl acetate] | 31.00
21 | CCCC#N [n-Butyronitrile] | 26.00
22 | CCCCC(C)=O [Methyl butyl ketone] | 35.00
23 | CC(C)[N+](=O)[O-] [2-Nitropropane] | 39.00
24 | O=CO [Formic acid] | 69.00
25 | CC(=O)O [Acetic acid] | 43.00
26 | O=C1C=CC(=O)O1 [Maleic anhydride] | 102.00
27 | C=COC [Methyl vinyl ether] | -51.00

Row | SMILES | flash point [°C]
28 | c1ccc(Oc2ccccc2)cc1 [Phenyl ether] | 96.00
29 | CS(C)=O [Dimethyl sulphoxide] | 95.00
30 | O=C(O)CCCCC(=O)O [Adipic acid] | 191.00
31 | CO [Methyl alcohol] | 12.00
32 | OCc1ccco1 [Furfuryl alcohol] | 75.00
33 | OCCOCCOCCO [Triethylene glycol] | 177.00
34 | CC(C)CCOC=O [iso-Amyl formate] | 26.00
35 | Clc1ccccc1 [Chlorobenzene] | 29.00
36 | N#CCCC#N [Succinonitrile] | 132.00
37 | O=[N+]([O-])c1cccc2ccccc12 [alpha-Nitronaphthalene] | 164.00
38 | CN [Monomethylamine] | -10.00
39 | CC(=O)OCCC(C)C [iso-Amyl acetate] | 23.00
40 | OCCOCCO [Diethylene glycol] | 124.00
41 | O=C1OC(=O)c2ccccc21 [Phthalic anhydride] | 151.00
42 | O=CC=Cc1ccccc1 [Cinnamaldehyde] | 49.00
43 | CCC(C=O)CC [2-Ethyl butyraldehyde] | 21.00
44 | CCCN(CCC)CCC [Tripropylamine] | 41.00
45 | C=C(C)C1CC=C(C)CC1 (centres undefined) [p-Mentha-1,8-diene] | 45.00
46 | O=C1c2ccccc2C(=O)c2ccccc21 [Anthraquinone] | 185.00
47 | CCCC=C(C=O)CC [2-Ethyl-3-propyl acrolein] | 68.00
48 | Clc1ccc(Cl)c(Cl)c1 [1,2,4-Trichlorobenzene] | 99.00
49 | CC(=O)OC(C)C [iso-Propyl acetate] | 4.00
50 | CCCCCCCC/C=C\CCCCCCCC(=O)O [Oleic acid] | 189.00
51 | COC=O [Methyl formate] | -19.00
52 | Clc1c(Cl)c(Cl)c(Cl)c(Cl)c1Cl [Hexachlorobenzene] | 242.00

Row | SMILES | flash point [°C]
53 | C1CCNCC1 [Piperidine] | 16.00
54 | NC1CCCCC1 [Cyclohexylamine] | 32.00
55 | OCCCCCO [1,5-Pentanediol] | 135.00
56 | CCOC(C)=O [Ethyl acetate] | -4.40
57 | C=COCCCC [Butyl vinyl ether] | -9.00
58 | NCCCN [1,3-Propanediamine] | 24.00
59 | CCN(CC)c1ccccc1 [N,N-Diethylaniline ] | 85.00
60 | CCO [Ethanol] | 12.00
61 | c1ccc(Cc2ccccc2)cc1 [Diphenylmethane] | 130.00
62 | SCc1ccccc1 [Benzyl mercaptan] | 70.00
63 | Cc1ccccc1C [o-Xylene] | 32.00
64 | Oc1ccc(Cl)cc1 [p-Chlorophenol] | 121.00
65 | CC[N+](=O)[O-] [Nitroethane] | 38.00
66 | O=[N+]([O-])c1ccccc1 [Nitrobenzene] | 88.00
67 | CC(O)C#N (centres undefined) [Lactonitrile] | 77.00
68 | Oc1ccc2ccccc2c1 [2-Naphthol] | 153.00
69 | C=Cc1ccccc1 [Styrene] | 31.00
70 | CCCCCCO [n-Hexanol] | 60.00
71 | CC12CCC(CC1=O)C2(C)C (centres undefined) [Camphor] | 66.00
72 | CC(=O)Oc1ccccc1 [Phenyl acetate] | 80.00
73 | Oc1ccccc1-c1ccccc1 [o-Phenyl phenol] | 124.00
74 | COC(=O)c1ccccc1O [Methyl salicylate] | 101.00
75 | C=CCBr [Allyl bromide] | -1.00
76 | CCNc1ccccc1 [n-Ethyl aniline] | 85.00
77 | C=CC(=O)OCC [Ethyl acrylate] | 16.00

Row | SMILES | flash point [°C]
78 | CC(C)Cc1ccccc1 [iso-Butyl benzene] | 52.00
79 | Nc1cc(Cl)ccc1Cl [2,5-Dichloroaniline] | 166.00
80 | CCN1CCOCC1 [N-Ethylmorpholine] | 32.00
81 | O=[N+]([O-])c1ccccc1-c1ccccc1 [o-Nitrobiphenyl] | 143.00
82 | CC(=O)OC(C)=O [Acetic anhydride] | 54.00
83 | ClCC(Cl)CCl [1,2,3-Trichloropropane] | 82.00
84 | CCCC(=O)OC(=O)CCC [n-Butyric anhydride] | 88.00
85 | CC(=O)OCc1ccccc1 [Benzyl acetate] | 102.00
86 | FC(F)(F)c1ccccc1 [Benzotrifluoride] | 12.00
87 | O=C(OCc1ccccc1)c1ccccc1 [Benzyl benzoate] | 148.00
88 | C#CCO [Propargyl alcohol] | 36.00
89 | CCCCN(CCCC)CCCC [Tri-n-butyl amine] | 86.00
90 | Clc1ccccc1Cl [o-Dichlorobenzene] | 66.00
91 | CCCCc1ccccc1 [n-Butyl benzene] | 71.00
92 | c1ccc(C2CCCCC2)cc1 [Cyclohexylbenzene] | 99.00
93 | O=C(O)c1ccccc1 [Benzoic acid] | 121.00
94 | CC(C)OC(=O)c1ccccc1 [iso-Propyl benzoate] | 99.00
95 | NCCNCCNCCN [Triethylene-tetramine] | 135.00
96 | C=C(Cl)Cl [Vinylidene chloride] | -15.00
97 | CC(O)C(C)O (centres undefined) [2,3-Butylene glycol] | 85.00
98 | C=COC(C)=O [Vinyl acetate] | -8.00
99 | CC(C)=O [Acetone] | -18.00
100 | CN(C)C=O [Dimethylformamide] | 58.00
101 | c1ccc2cc3ccccc3cc2c1 [Anthracene] | 121.00
102 | CC(C)c1ccccc1C(C)C [Diisopropyl benzene] | 76.00

Row | SMILES | flash point [°C]
103 | ClCCCCl [1,3-Dichloropropane] | 35.00
104 | CCCC(=O)OCC [Ethyl butyrate] | 26.00
105 | C=CC [Propylene] | -108.00
106 | CCCCCC [Hexane] | -22.00
107 | CCCO [n-Propyl alcohol] | 15.00
108 | CCCCCl [n-Butyl chloride] | 7.00
109 | COc1ccccc1 [Anisole] | 52.00
110 | CCC(C)C [iso-Pentane] | -51.00
111 | COC [Methyl ether] | -41.00
112 | CC(O)CCO (centres undefined) [1,3-Butylene glycol] | 121.00
113 | Cc1cccc(O)c1 [m-Cresol] | 94.00
114 | C1CCCC1 [Cyclopentane] | -7.00
115 | CCCCCCC(C)OC(=O)c1ccccc1C(=O)OC(C)CCCCCC (centres undefined) [Di-sec-Octyl phthalate] | 218.00
116 | OCc1ccccc1 [Benzyl alcohol] | 101.00
117 | C=C(C)OC(C)=O [iso-Propenyl acetate] | 16.00
118 | c1ccc(Nc2ccccc2)cc1 [Diphenylamine] | 153.00
119 | ClCCCCCl [1,4-Dichlorobutane] | 52.00
120 | CC1COC(=O)O1 (centres undefined) [Propylene carbonate] | 135.00
121 | Cc1ccc([N+](=O)[O-])cc1 [p-Nitrotoluene] | 106.00
122 | CCCCCCCCOC(=O)c1ccccc1C(=O)OCCCCCCCC [Di-n-Octyl phthalate] | 219.00
123 | C1CCC(C2CCCCC2)CC1 [Bicyclohexyl] | 74.00
124 | Cc1ccc(C(C)C)cc1 [p-Cymene] | 47.00
125 | ClCc1ccccc1 [Benzyl chloride] | 67.00

remark: another data set of the same source

Row | SMILES | flash point [°C]
126 | C=CC(C)C [1-Butene, 3-methyl-] | -55.9
127 | CCCCC(C)=O [2-Hexanone] | 23.0

remark: another data set of the same source

Row | SMILES | flash point [°C]
128 | CN(C)C1CCCCC1 [N,N-dimethylcyclohexylamine] | 39
129 | C=C1CCCCC1 [methylenecyclohexane] | -6
